Data taken from patent publication US20070060512A1, “Dipeptidyl-peptidase protected protein” (priority 2003, published 2007).
Where no end group is shown, it is not given here.

Columns and labels:
[1] = tested on: Zucker rats; experiment: Fasting glucose of Zucker rats without glucose administration; format: in vivo, rat; settings: versus untreated animals
Excerpt: In a further experiment, modified H-GLP-1 or H-GLP-1/mTf is used to normalize the high fasting glucose of the Zucker rats without glucose administration.

[2] = tested on: Zucker rats; experiment: Glucose Tolerance Test in Zucker rats; format: in vivo, rat; settings: fasted Zucker rats, subcutaneous injection 30 minutes before glucose 1.5 mg/g body weight; versus untreated animals
Protocol: In this Example, modified GLP-1/mTf of the present invention is used as a therapeutic agent to treat diabetes. Modified GLP-1/mTf is administered to Zucker rats, a standard animal model for type II diabetes. Zucker rats have abnormally high blood glucose levels. […] Zucker rats are fasted overnight and then treated with H-GLP-1 or H-GLP-1 fused to transferrin (H-GLP-1/mTf). Thirty minutes after subcutaneous injection of H-GLP-1 or H-GLP-1/mTf, the animals are subjected to a Glucose Tolerance Test (GTT). For this test, fasted animals are fed glucose solution (1.5 mg/g body weight), and the blood glucose is measured at appropriate time intervals.

[3] = molecular target: T1, recombinant human DPP-IV (Homo sapiens, UniProt P27487); experiment: Dipeptidylpeptidase-IV treatment of mTf fusion proteins, cyclic AMP stimulation assay in CHO-GLP1R cells; format: in vitro ADME; settings: 2 μM fusion protein, DPP-IV 1 μg/μL, room temperature 2 hours; cAMP in CHO-GLP1R cells
T1 construct: purchased R&D Systems
Protocol: Control reactions excluding DPP-IV were set-up in parallel for each fusion protein. The digests were incubated at room temperature for 2 hours, at which time the reactions were diluted 20-fold in Krebs-Ringer buffer (Biosource International) supplemented with 1 mM IBMX (Calbiochem).
Tissue culture plates (24-well) were seeded with CHO-GLP1R cells at a density of 1×10^5 cells per/well in RPMI/10% FBS medium one day prior to treatment. The next day the cells appeared uniformly distributed with an approximate confluency of 60-80 percent. One day after seeding the culture plates the cells were washed twice with Krebs-Ringer buffer (KRB) followed by incubation in KRB for 1 hr at 37° C. to lower the intracellular levels of cAMP. This was followed by incubation for 10 minutes in KRB/IBMX to inhibit intracellular enzymes that break down cAMP. Dilutions of each test compound were prepared in KRB/IBMX and triplicate wells of CHO-GLP1R cells were treated with 0.15 ml of test compound per well for exactly 50 minutes at 37° C. The treatment was halted by washing the cultures two times with ice-cold phosphate-buffered saline. […]

[4] = second N-terminal alanine replaced with serine; cited from earlier work
[5] = compared to GLP-1; cited from earlier work

T1 sequence (P27487 whole entry, the tested form may be a part): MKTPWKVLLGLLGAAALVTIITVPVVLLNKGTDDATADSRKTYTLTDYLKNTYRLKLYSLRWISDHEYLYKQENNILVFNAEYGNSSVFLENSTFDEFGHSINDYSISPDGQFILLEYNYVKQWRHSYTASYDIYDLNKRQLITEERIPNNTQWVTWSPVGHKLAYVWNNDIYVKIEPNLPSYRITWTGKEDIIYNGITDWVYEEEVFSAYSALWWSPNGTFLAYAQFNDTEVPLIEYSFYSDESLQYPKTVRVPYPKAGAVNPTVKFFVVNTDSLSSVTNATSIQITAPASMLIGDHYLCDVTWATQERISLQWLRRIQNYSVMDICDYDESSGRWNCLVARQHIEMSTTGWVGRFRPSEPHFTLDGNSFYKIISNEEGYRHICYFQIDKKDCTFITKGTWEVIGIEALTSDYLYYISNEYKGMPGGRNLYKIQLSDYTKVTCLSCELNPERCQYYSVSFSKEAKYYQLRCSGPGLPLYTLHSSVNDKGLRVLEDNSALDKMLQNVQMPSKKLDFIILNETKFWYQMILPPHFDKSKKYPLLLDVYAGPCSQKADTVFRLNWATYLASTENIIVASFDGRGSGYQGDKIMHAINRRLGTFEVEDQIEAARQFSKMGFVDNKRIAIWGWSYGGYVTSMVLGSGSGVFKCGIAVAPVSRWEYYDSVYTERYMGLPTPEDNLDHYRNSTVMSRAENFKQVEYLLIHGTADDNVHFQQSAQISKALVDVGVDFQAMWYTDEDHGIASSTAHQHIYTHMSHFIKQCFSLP

| Molecule | fasting blood glucose level [1] | normalization of blood glucose level in Glucose Tolerance Test [2] | resistance to DPP-IV [3] | insulinotropic action [4] | plasma stability [5] |
| --- | --- | --- | --- | --- | --- |
| CC[C@H](C)[C@H](NC(=O)[C@H](Cc1ccccc1)NC(=O)[C@H](CCC(=O)O)NC(=O)[C@H](CCCCN)NC(=O)[C@H](C)NC(=O)[C@H](C)NC(=O)[C@H](CCC(N)=O)NC(=O)CNC(=O)[C@H](CCC(=O)O)NC(=O)[C@H](CC(C)C)NC(=O)[C@H](Cc1ccc(O)cc1)NC(=O)[C@H](CO)NC(=O)[C@H](CO)NC(=O)[C@@H](NC(=O)[C@H](CC(=O)O)NC(=O)[C@H](CO)NC(=O)[C@@H](NC(=O)[C@H](Cc1ccccc1)NC(=O)[C@@H](NC(=O)CNC(=O)[C@H](CCC(=O)O)NC(=O)[C@H](C)NC(=O)[C@H](Cc1c[nH]cn1)NC(=O)[C@@H](N)Cc1c[nH]cn1)[C@@H](C)O)[C@@H](C)O)C(C)C)C(=O)N[C@@H](C)C(=O)N[C@@H](Cc1c[nH]c2ccccc12)C(=O)N[C@@H](CC(C)C)C(=O)N[C@H](C(=O)N[C@@H](CCCCN)C(=O)NCC(=O)N[C@@H](CCCNC(=N)N)C(=O)O)C(C)C [H-GLP-1] | significant drop | faster normalization of blood glucose level | – | – | – |
| H-GLP-1/mTf: H-GLP-1(7-36) fused to modified transferrin (mTf), expressed in Saccharomyces from pREX0368 (HHAEGTFTSDVSSYLEGQAAKEFIAWLVKGR; also: fused to modified transferrin (mTf)) | significant drop | faster normalization of blood glucose level | more resistant to DPP-IV than GLP-1/mTf | – | – |
| [Ser^8]GLP-1: GLP-1 analog in which the second N-terminal alanine is replaced with serine (Ritzel et al.) (HSEGTFTSDVSSYLEGQAAKEFIAWLVKGRG; Glucagon-like peptide 1(7-37); UniProt P01275 98-128, looked up, variant A8S) | – | – | – | did not impair the insulinotropic action | increased plasma stability as compared to GLP-1 |
